Measured values from patent publication US20180021275A1, “METHOD OF TREATING IDIOPATHIC PULMONARY FIBROSIS” (MediciNova, Inc., priority 2014, published 2018).

How the values were obtained:
Assay type in all cases: in vivo, C57BL/6 mice
[1] = Body weight changes in BLM-induced pulmonary fibrosis model mice; settings: for Body weight changes (%) on the day of sacrifice: percentage of baseline (day 0), mean ± SD
Experimental: Seven-week-old female C57BL/6 mice (17-21 g) were obtained from Japan SLC (Japan). Animals were housed and fed with normal diet (CE-2; CLEA Japan) under conventional conditions. All animals used in this study were cared following appropriate guidelines.
(§1) On day 0, twenty mice were intratracheally administered BLM (Nippon Kayaku, Japan) in 0.9% saline in a volume of 50 μL per animal using a Microsprayer® (Penn-Century, USA).
(§2) MN-001 and vehicle were administered by oral route in a volume of 10 mL/kg.
(§3) MN-001 was administered at doses of 30, 100, 300 mg/kg once daily.
(§4) The viability, clinical signs and behavior were monitored every day. Body weight was recorded daily after the day of starting the BLM administration (day 0). Animals were sacrificed by exsanguination through the abdominal aorta under pentobarbital sodium anesthesia (Kyoritsu, Japan).
Body weight was expressed as percentage body weight change from baseline (day 0).

[2] = tested on: BLM-induced pulmonary fibrosis model mice; assay: Survival analysis in BLM-induced pulmonary fibrosis model mice
Experimental: as §1, §2, §3, §4

[3] = tested on: BLM-induced pulmonary fibrosis model mice; assay: CT evaluation of lung density in BLM-induced pulmonary fibrosis model mice; settings: for Lung density on day 0 / Lung density on day 7: CT, mean ± SD; for Lung density on day 0: day 0 (before BLM administration and before treatment); for Lung density on day 7: day 7 after BLM (start of treatment)
Experimental: On day 0, twenty mice were intratracheally administered BLM (Nippon Kayaku, Japan) in 0.9% saline in a volume of 50 μL per animal using a Microsprayer® (Penn-Century, USA). MN-001 and vehicle were administered by oral route in a volume of 10 mL/kg. MN-001 was administered at doses of 30, 100, 300 mg/kg once daily. […] The mice were mounted on a holder and placed in the X-ray CT system (LCT-200, Aloka, Japan) under pentobarbital sodium (Kyoritu Seiyaku, Japan) anesthesia. The images were converted into DICOM format and analyzed with Onis Viewer (DigitalCore, Japan). Two section slides (upper: forth dorsal vertebra, lower: seventh dorsal vertebra) were determined from each scan data set, and eight regions of interest (ROI) were defined in the following areas: the right upper anterior and posterior regions, the left upper anterior and posterior region. The means of the intensity of the eight ROIs were defined as an individual's level of lung density.

[4] = tested on: BLM-induced pulmonary fibrosis model mice; assay: Cellular analysis of BALF (total cell number) in BLM-induced pulmonary fibrosis model mice; settings: for Total number of cells in BALF: sacrifice day 21, mean ± SD
Experimental: On day 0, twenty mice were intratracheally administered BLM (Nippon Kayaku, Japan) in 0.9% saline in a volume of 50 μL per animal using a Microsprayer® (Penn-Century, USA). MN-001 and vehicle were administered by oral route in a volume of 10 mL/kg. MN-001 was administered at doses of 30, 100, 300 mg/kg once daily. BALF samples were collected by flushing the lung via the trachea with sterile PBS three times (0.8 mL each). The first lavage was kept separate from the other two. BALF was centrifuged at 1,000×g for 3 minutes at 4° C. and the supernatant was collected and stored at −80° C. until use. The cell pellet from the first fraction and the remaining fractions of lavage fluid were pooled. Total cell number of BALF was counted with a hemocytometer.

[5] = tested on: BLM-induced pulmonary fibrosis model mice; assay: Lung hydroxyproline content in BLM-induced pulmonary fibrosis model mice; settings: for Lung hydroxyproline contents / Lung Hyp (lung hydroxyproline content): sacrifice day 21, mean ± SD
Experimental: On day 0, twenty mice were intratracheally administered BLM (Nippon Kayaku, Japan) in 0.9% saline in a volume of 50 μL per animal using a Microsprayer® (Penn-Century, USA). MN-001 and vehicle were administered by oral route in a volume of 10 mL/kg. MN-001 was administered at doses of 30, 100, 300 mg/kg once daily. To quantify lung hydroxyproline content, frozen left lung samples (15-25 mg) were processed by an alkaline-acid hydrolysis method as follows. Lung samples were acid-hydrolyzed with 400 μL of 6N HCl at 121° C. for 20 minutes, and neutralized with 400 μL of 4N NaOH containing 10 mg/mL activated carbon. AC buffer (2.2M acetic acid/0.48M citric acid, 400 μL) was added to the samples, followed by centrifugation to collect the supernatant. A standard curve of hydroxyproline was constructed with serial dilutions of trans-4-hydroxy-L-proline (Sigma-Aldrich, USA) starting at 16 μg/mL. The prepared samples and standards (each 400 μL) were mixed with 400 μL chloramine T solution (Wako Pure Chemical Industries Japan) and incubated for 25 minutes at room temperature. The samples were then mixed with Ehrlich's solution (400 μL) and heated at 65° C. for 20 minutes to develop the color. After samples were cooled on ice and centrifuged to remove precipitates, the optical density of each supernatant was measured at 560 nm. The concentrations of hydroxyproline were calculated from the hydroxyproline standard curve. Lung hydroxyproline levels were expressed as […].

[6] = tested on: BLM-induced pulmonary fibrosis model mice; assay: Histopathological analysis (Masson's trichrome staining, Ashcroft score) in BLM-induced pulmonary fibrosis model mice; settings: for Ashcroft score: sacrifice day 21, mean ± SD
Experimental: On day 0, twenty mice were intratracheally administered BLM (Nippon Kayaku, Japan) in 0.9% saline in a volume of 50 μL per animal using a Microsprayer® (Penn-Century, USA). MN-001 and vehicle were administered by oral route in a volume of 10 mL/kg. MN-001 was administered at doses of 30, 100, 300 mg/kg once daily. Right lung tissues prefixed in 10% neutral buffered formalin were embedded in paraffin and sectioned at […] sections were stained with Masson's trichrome staining Kit (Sigma, USA) according to the manufacturer's instructions. The degree of pulmonary fibrosis was evaluated using the Ashcroft score (Ashcroft, T., et al., J Clin Pathol, 1988; 41:467-70) for the quantitative histological analysis.

[7] = tested on: BLM-induced pulmonary fibrosis in mice; assay: Bleomycin (BLM)-induced pulmonary fibrosis in mice, therapeutic regimen, overall conclusion; settings: administered after detecting fibrosis (therapeutic regimen, from day 7 after BLM)
Experimental: As evidenced by Ashcroft score and lung hydroxyproline content, pulmonary fibrosis was established in all BLM-treated mice. […] In the present study, MN-001 was administered at day 7 after BLM administration. Since BLM induced fibrogenic reaction already at day 7, the treatment schedule in the present study is considered to be a “therapeutic regimen”. […] On day 0, twenty mice were intratracheally administered BLM (Nippon Kayaku, Japan) in 0.9% saline in a volume of 50 μL per animal using a Microsprayer® (Penn-Century, USA). MN-001 and vehicle were administered by oral route in a volume of 10 mL/kg. MN-001 was administered at doses of 30, 100, 300 mg/kg once daily.

[8] = tested on: BLM-induced pulmonary fibrosis model mice; assay: CT evaluation of lung density in BLM-induced pulmonary fibrosis model mice; settings: for Lung density on day 21: CT, mean ± SD
[9] = MN-001 30 mg/kg oral once daily day 7 to 20, n = 8, 30 mg/kg
[10] = MN-001 100 mg/kg oral once daily day 7 to 20, n = 10, 100 mg/kg
[11] = MN-001 300 mg/kg oral once daily day 7 to 20, n = 10, 300 mg/kg
[12] = MN-001 30 mg/kg oral once daily day 7 to 20
[13] = MN-001 100 mg/kg oral once daily day 7 to 20
[14] = MN-001 300 mg/kg oral once daily day 7 to 20
[15] = MN-001 30 mg/kg oral once daily day 7 to 20, n = 8
[16] = MN-001 100 mg/kg oral once daily day 7 to 20, n = 10
[17] = MN-001 300 mg/kg oral once daily day 7 to 20, n = 10
[18] = MN-001 treatment, all doses, administered from day 7 after BLM

Compound: CCCc1c(SCCCOc2ccc(C(C)=O)c(OCCCC(=O)O)c2CCC)ccc(C(C)=O)c1O [MN-001]
- Body weight changes (%) on the day of sacrifice [1, 9]: 104.8±3.7%
- Body weight changes (%) on the day of sacrifice [1, 10]: 100.9±10.6%
- Body weight changes (%) on the day of sacrifice [1, 11]: 104.2±4.1%
- Mean body weight loss on the day of sacrifice compared to the Vehicle group ([1]; MN-001 treated groups (30, 100, 300 mg/kg), Bonferroni multiple comparison test): no significant differences
- Mice died before reaching day 21 ([2]; MN-001 30 mg/kg group, during the treatment period (Vehicle: two out of 10)): Two out of 10
- Survival rate compared to the Vehicle group ([2]; MN-001 treated groups (30, 100, 300 mg/kg)): no significant differences
- Lung density on day 0 ([3]; MN-001 30 mg/kg group, n = 8): −445 ± 17
- Lung density on day 7 ([3]; MN-001 30 mg/kg group, n = 8): −375 ± 77
- Lung density on day 0 ([3]; MN-001 100 mg/kg group, n = 10): −444 ± 18
- Lung density on day 7 ([3]; MN-001 100 mg/kg group, n = 10): −343 ± 84
- Lung density on day 0 ([3]; MN-001 300 mg/kg group, n = 10): −423 ± 19
- Lung density on day 7 ([3]; MN-001 300 mg/kg group, n = 10): −415 ± 83
- Lung density, visually observed in the graphs (FIGS. 1.1 to 1.3) ([3]; MN-001 treated groups vs Vehicle): downward trend
- Total number of cells in BALF [4, 12]: 65.1±26.1 ×10^5 cells
- Total number of cells in BALF [4, 13]: 124.4±127.3 ×10^4 cells
- Total number of cells in BALF [4, 14]: 76.0±35.0 ×10^5 cells
- Total number of cells in BALF compared to the Vehicle group ([4]; any MN-001 treated groups): no significant differences
- Lung hydroxyproline contents compared to the Vehicle group ([5]; MN-001 30 mg/kg group): significantly decreased
- Lung hydroxyproline contents [5, 12]: 49.8±7.9 μg/left lung
- Lung Hyp (lung hydroxyproline content) [5, 15]: 49.8 ± 7.9 µg/left lung
- Lung hydroxyproline contents compared to the Vehicle group ([5]; MN-001 100 mg/kg group): significantly decreased
- Lung hydroxyproline contents [5, 13]: 56.1±10.1 μg/left lung
- Lung Hyp (lung hydroxyproline content) [5, 16]: 56.1 ± 10.1 µg/left lung
- Lung hydroxyproline contents [5, 14]: 56.4±12.7 μg/left lung
- Lung Hyp (lung hydroxyproline content) [5, 17]: 56.4 ± 12.7 µg/left lung
- Lung hydroxyproline content compared to the Vehicle group ([5]; MN-001 300 mg/kg treatment): tended to decrease
- Lung hydroxyproline content compared to the Vehicle group at day 21 (summary) [5, 18]: significant reduction or a decreasing trend
- Ashcroft score [6, 9]: 2.0±0.7
- Ashcroft score compared to the Vehicle group ([6]; MN-001 30 mg/kg treatment): tended to decrease
- Ashcroft score [6, 10]: 2.2±0.8
- Ashcroft score compared to the Vehicle group ([6]; MN-001 100 mg/kg treatment): tended to decrease
- Ashcroft score compared to the Vehicle group ([6]; MN-001 300 mg/kg group): significantly decreased
- Ashcroft score [6, 11]: 1.8±0.6
- Ashcroft score compared to the Vehicle group at day 21 (summary) [6, 18]: significant reduction or a decreasing trend
- Anti-fibrogenic effect [7]: significant anti-fibrogenic effect
- Lung density on day 21 [8, 15]: −186 ± 84
- Lung density on day 21 [8, 16]: −200 ± 122
- Lung density on day 21 [8, 17]: −260 ± 107
- Lung density on day 0, 7 and 21 compared to the Vehicle group ([8]; any of the MN-001 treated groups, statistical comparison): no significant differences
